Results published in patent US20140323443A1, “TIGECYCLINE FORMULATIONS” (Fresenius Kabi USA, LLC, priority 2013, published 2014).

How the values were obtained:
[1] = pH of a saturated solution of tigecycline in water; format: physicochemical
Procedure: A solid composition that includes tigecycline and arginine may further include an acid and/or a base. The pH of a saturated solution of tigecycline in water is about 8. The amount of the acid and/or base may be an amount sufficient to provide a pH in the range of from 4 to 6 when a composition containing 53 mg tigecycline is reconstituted in 5.3 mL of an aqueous carrier liquid, such as 0.9% sodium chloride injection. Preferably the amount of the acid and/or base may be an amount sufficient to provide a pH in the range of from 4.25 to 5.75, from 4.5 to 5.75, from 4.5 to 5.5, or from 4.75 to 5.25 when a composition containing 53 mg tigecycline is reconstituted in 5.3 mL of an aqueous carrier liquid. In some embodiments, hydrochloric acid and/or sodium hydroxide is used to adjust pH.

[2] = cited from earlier work
[3] = aqueous liquid at 2-8° C., water sparged and tigecycline blanketed with inert gas, for 24 hours; cited from earlier work

pH of a saturated solution in water [1]: about 8
SMILES: CN(C)c1cc(NC(=O)CNC(C)(C)C)c(O)c2c1C[C@H]1C[C@H]3[C@H](N(C)C)C(O)=C(C(N)=O)C(=O)[C@@]3(O)C(O)=C1C2=O [tigecycline, (4S,4aS,5aR,12aS)-9-[2-(tert-butylamino)acetamido]-4,7-bis(dimethyl-amino)-1,4,4a,5,5a,6,11,12a-octahydro-3,10,12,12a-tetrahydroxy-1,11-dioxo-2-naphthacenecarboxamide]
oral bioavailability [2]: poor | amount of tigecycline converted into degradants prior to lyophilization [3]: below 1%
